The subject of the experiment is IL-4 induced STAT6 phosphorylation in THP-1 human monocytic cells. Particulars: THP-1 cells.
As to `COC(=O)c1cnc2cc(Nc3cc(C)[nH]n3)nc(N[C@@H]3C[C@H]4CC[C@@H](C3)N4C[C@H]3CCC(=O)O3)c2c1` [Example 6-46], the “THP-1 IL4 pIC50” value is listed as “C (C represents a pEC50 value <6.7 (EC50>200 nM))”.

For the molecule `Cc1cc(Nc2cc3ncccc3c(N[C@@H]3C[C@H]4CC[C@@H](C3)N4CC(=O)N[C@H]3CCOC3=O)n2)n[nH]1` [Example 1-12], the “THP-1 IL4 pIC50” value was “C (C represents a pEC50 value <6.7 (EC50>200 nM))”.

On to `Cc1cc(Nc2cc3ncc(S(C)(=O)=O)cc3c(N[C@@H]3C[C@H]4CC[C@@H](C3)N4[C@@H]3CCOC3=O)n2)n[nH]1` [Example 6-57], for which the “THP-1 IL4 pIC50” value is “C (C represents a pEC50 value <6.7 (EC50>200 nM))”.

`CCOCC(=O)N1[C@@H]2CC[C@H]1C[C@H](Nc1nc(Nc3cc(C)[nH]n3)cc3ncccc13)C2` [Example 2-4]: the “THP-1 IL4 pIC50” value is “C (C represents a pEC50 value <6.7 (EC50>200 nM))”.

As to `Cc1cc(Nc2cc3ncc(S(C)(=O)=O)cc3c(N[C@@H]3C[C@H]4CC[C@@H](C3)N4CCCF)n2)n[nH]1` [Example 6-55], the “THP-1 IL4 pIC50” value was “C (C represents a pEC50 value <6.7 (EC50>200 nM))”.

As to `Cc1cc(Nc2cc3ncccc3c(N[C@@H]3C[C@H]4CCC[C@@H](C3)N4Cc3cccc(O)c3)n2)n[nH]1` [Example 1-49], the “THP-1 IL4 pIC50” value was “A (A represents a pEC50 value ≥7.5 (EC50≤32 nM))”.

As for `Cc1cc(Nc2cc3ncc(S(C)(=O)=O)cc3c(N[C@@H]3C[C@H]4CC[C@@H](C3)N4C(=O)CC#N)n2)n[nH]1` [Example 6-51], the “THP-1 IL4 pIC50” value was “C (C represents a pEC50 value <6.7 (EC50>200 nM))”.

In the case of `COC(=O)CCCN1[C@@H]2CCC[C@H]1C[C@H](Nc1nc(Nc3cc(C)[nH]n3)cc3ncccc13)C2` [Example 1-34], the “THP-1 IL4 pIC50” value is reported as “C (C represents a pEC50 value <6.7 (EC50>200 nM))”.

Take `CCS(=O)(=O)N1[C@@H]2CCC[C@H]1C[C@H](Nc1nc(Nc3cc(C)[nH]n3)cc3nc(CN4CCOCC4)ccc13)C2` [Example 5-23]: the “THP-1 IL4 pIC50” value is “A (A represents a pEC50 value ≥7.5 (EC50≤32 nM))”.

With `Cc1cc(Nc2cc3ncc(S(C)(=O)=O)cc3c(N[C@@H]3C[C@H]4CC[C@@H](C3)N4[C@@H]3CCOC3=O)n2)n[nH]1` [Example 6-58], the “THP-1 IL4 pIC50” value was “C (C represents a pEC50 value <6.7 (EC50>200 nM))”.

Take `COC(=O)CCN1[C@@H]2CCC[C@H]1C[C@H](Nc1nc(Nc3cc(C)[nH]n3)cc3ncccc13)C2` [Example 1-33]: the “THP-1 IL4 pIC50” value is “C (C represents a pEC50 value <6.7 (EC50>200 nM))”.

For `Cc1cc(Nc2cc3ncc(S(C)(=O)=O)cc3c(N[C@@H]3C[C@H]4CC[C@@H](C3)N4CCC#N)n2)n[nH]1` [Example 6-50], the “THP-1 IL4 pIC50” value is recorded as “C (C represents a pEC50 value <6.7 (EC50>200 nM))”.

As for `COC(=O)CN1[C@@H]2CC[C@H]1C[C@H](Nc1nc(Nc3cc(C)[nH]n3)cc3ncccc13)C2` [Example 1-1], the “THP-1 IL4 pIC50” value was “C (C represents a pEC50 value <6.7 (EC50>200 nM))”.

`Cc1cc(Nc2nc(NC3CC4CCC(C3)N4C(=O)C(C)O)c3cccnc3c2F)n[nH]1` (centres unmarked) [Example 8-8]: the “THP-1 IL4 pIC50” value was “C (C represents a pEC50 value <6.7 (EC50>200 nM))”.

Turning to `C=CCOC(=O)N1[C@@H]2CC[C@H]1C[C@H](Nc1nc(Nc3cc(C)[nH]n3)cc3ncccc13)C2` [Example 3-4], the “THP-1 IL4 pIC50” value is listed as “A (A represents a pEC50 value ≥7.5 (EC50≤32 nM))”.

In the case of `Cc1cc(Nc2cc3ncccc3c(N[C@@H]3C[C@H]4CCC[C@@H](C3)N4S(C)(=O)=O)n2)n[nH]1` [Example 4-16], the “THP-1 IL4 pIC50” value was “A (A represents a pEC50 value ≥7.5 (EC50≤32 nM))”.

For `Cc1cc(Nc2cc3ncc(S(C)(=O)=O)cc3c(N[C@@H]3C[C@H]4CC[C@@H](C3)N4CCF)n2)n[nH]1` [Example 6-54], the “THP-1 IL4 pIC50” value was “C (C represents a pEC50 value <6.7 (EC50>200 nM))”.

Regarding `Cc1cc(Nc2cc3ncccc3c(N[C@@H]3C[C@H]4CC[C@@H](C3)N4C(C)CC#N)n2)n[nH]1` (some centres unmarked) [Example 1-21], the “THP-1 IL4 pIC50” value is “A (A represents a pEC50 value ≥7.5 (EC50≤32 nM))”.

Consider `Cc1cc(Nc2nc(N[C@@H]3C[C@H]4CC[C@@H](C3)N4C(=O)CN(C)C)c3cccnc3c2F)n[nH]1` [Example 8-7], for which the “THP-1 IL4 pIC50” value was “C (C represents a pEC50 value <6.7 (EC50>200 nM))”.

With `CNC(=O)CN1[C@@H]2CC[C@H]1C[C@H](Nc1nc(Nc3cc(C)[nH]n3)cc3ncccc13)C2` [Example 1-7], the “THP-1 IL4 pIC50” value is given as “C (C represents a pEC50 value <6.7 (EC50>200 nM))”.

On to `Cc1cc(Nc2cc3ncccc3c(N[C@@H]3C[C@H]4CC[C@@H](C3)N4CC(=O)N(C)C)n2)n[nH]1` [Example 1-8], for which the “THP-1 IL4 pIC50” value is “C (C represents a pEC50 value <6.7 (EC50>200 nM))”.

For the molecule `Cc1cc(Nc2cc3nc(CN4CCOCC4)ccc3c(N[C@H]3C[C@H]4CCC[C@@H](C3)N4CC(F)(F)F)n2)n[nH]1` [Example 5-29], the “THP-1 IL4 pIC50” value was “B (B represents a pEC50 value between 6.7 and 7.5 (EC50 between 200 nM and 32 nM))”.

Take `C=CCS(=O)(=O)N1[C@@H]2CCC[C@H]1C[C@H](Nc1nc(Nc3cc(C)[nH]n3)cc3ncccc13)C2` [Example 4-22]: the “THP-1 IL4 pIC50” value is “A (A represents a pEC50 value ≥7.5 (EC50≤32 nM))”.

`C=CCOC(=O)N1[C@@H]2CC[C@H]1C[C@H](Nc1nc(Nc3cc(C)[nH]n3)cc3ncc(C(=O)OC)cc13)C2` [Example 6-40]: the “THP-1 IL4 pIC50” value was “A (A represents a pEC50 value ≥7.5 (EC50≤32 nM))”.

Turning to `COC(=O)CN1[C@@H]2CCC[C@H]1C[C@H](Nc1nc(Nc3cc(C)[nH]n3)cc3ncccc13)C2` [Example 1-32], the “THP-1 IL4 pIC50” value is given as “C (C represents a pEC50 value <6.7 (EC50>200 nM))”.

As to `Cc1cnc2c(F)c(Nc3cc(C)[nH]n3)nc(N[C@@H]3C[C@H]4CC[C@@H](C3)N4S(=O)(=O)N3CC(C#N)C3)c2c1` [Example 8-19], the “THP-1 IL4 pIC50” value is listed as “C (C represents a pEC50 value <6.7 (EC50>200 nM))”.

In the case of `COC(=O)c1cnc2cc(Nc3cc(C)[nH]n3)nc(N[C@@H]3C[C@H]4CC[C@@H](C3)N4CC(=O)OC(C)C)c2c1` [Example 6-41], the “THP-1 IL4 pIC50” value is listed as “A (A represents a pEC50 value ≥7.5 (EC50≤32 nM))”.

Take `Cc1cc(Nc2cc3ncccc3c(N[C@@H]3C[C@H]4CC[C@@H](C3)N4C[C@H]3CCC(=O)O3)n2)n[nH]1` [Example 1-29]: the “THP-1 IL4 pIC50” value is reported as “C (C represents a pEC50 value <6.7 (EC50>200 nM))”.

With `Cc1cc(Nc2cc3ncccc3c(N[C@@H]3C[C@H]4CC[C@@H](C3)N4CCCF)n2)n[nH]1` [Example 1-9], the “THP-1 IL4 pIC50” value was “C (C represents a pEC50 value <6.7 (EC50>200 nM))”.

On to `CCS(=O)(=O)N1[C@@H]2CC[C@H]1C[C@H](Nc1nc(Nc3cc(C)[nH]n3)c(F)c3ncccc13)C2` [Example 8-3], for which the “THP-1 IL4 pIC50” value was “A (A represents a pEC50 value ≥7.5 (EC50≤32 nM))”.

Consider `Cc1cc(Nc2cc3ncccc3c(N[C@@H]3C[C@H]4CC[C@@H](C3)N4CC(N)=O)n2)n[nH]1` [Example 1-6], for which the “THP-1 IL4 pIC50” value is reported as “C (C represents a pEC50 value <6.7 (EC50>200 nM))”.

Consider `COc1cnc2cc(Nc3cc(C)[nH]n3)nc(N[C@@H]3C[C@H]4CC[C@@H](C3)N4CCC#N)c2c1` [Example 6-11], for which the “THP-1 IL4 pIC50” value is reported as “A (A represents a pEC50 value ≥7.5 (EC50≤32 nM))”.

Regarding `Cc1cc(Nc2cc3nc(CS(C)(=O)=O)ccc3c(N[C@@H]3C[C@H]4CC[C@@H](C3)N4CCCF)n2)n[nH]1` [Example 5-42], the “THP-1 IL4 pIC50” value was “C (C represents a pEC50 value <6.7 (EC50>200 nM))”.

For `CNC(=O)CN1[C@@H]2CC[C@H]1C[C@H](Nc1nc(Nc3cc(C)[nH]n3)cc3ncc(C(=O)OC)cc13)C2` [Example 6-42], the “THP-1 IL4 pIC50” value was “C (C represents a pEC50 value <6.7 (EC50>200 nM))”.

With `Cc1ccc(S(=O)(=O)N2[C@@H]3CCC[C@H]2C[C@H](Nc2nc(Nc4cc(C)[nH]n4)cc4ncccc24)C3)cn1` [Example 4-25], the “THP-1 IL4 pIC50” value was “A (A represents a pEC50 value ≥7.5 (EC50≤32 nM))”.

With `COC(=O)c1cnc2cc(Nc3cc(C)[nH]n3)nc(N[C@@H]3C[C@H]4CC[C@@H](C3)N4C(=O)CN(C)C)c2c1` [Example 6-39], the “THP-1 IL4 pIC50” value is “C (C represents a pEC50 value <6.7 (EC50>200 nM))”.

Consider `CCC(C)C(=O)N1C2CCCC1CC(Nc1nc(Nc3cc(C)[nH]n3)cc3ncccc13)C2` (centres unmarked) [Example 2-18], for which the “THP-1 IL4 pIC50” value is reported as “A (A represents a pEC50 value ≥7.5 (EC50≤32 nM))”.

Turning to `COc1cnc2cc(Nc3cc(C)[nH]n3)nc(N[C@@H]3C[C@H]4CCC[C@@H](C3)N4C(=O)CN(C)C)c2c1` [Example 6-30], the “THP-1 IL4 pIC50” value is listed as “C (C represents a pEC50 value <6.7 (EC50>200 nM))”.

For the molecule `Cc1cc(Nc2cc3ncccc3c(N[C@@H]3C[C@H]4CCC[C@@H](C3)N4CC(=O)OC(C)C)n2)n[nH]1` [Example 1-35], the “THP-1 IL4 pIC50” value was “A (A represents a pEC50 value ≥7.5 (EC50≤32 nM))”.

With `COC(=O)c1cnc2cc(Nc3cc(C)[nH]n3)nc(N[C@@H]3C[C@H]4CC[C@@H](C3)N4CCC#N)c2c1` [Example 6-32], the “THP-1 IL4 pIC50” value was “A (A represents a pEC50 value ≥7.5 (EC50≤32 nM))”.

As for `CCOC(=O)N1[C@@H]2CCC[C@H]1C[C@H](Nc1nc(Nc3cc(C)[nH]n3)cc3ncccc13)C2` [Example 3-6], the “THP-1 IL4 pIC50” value is “A (A represents a pEC50 value ≥7.5 (EC50≤32 nM))”.

Take `Cc1cc(Nc2cc3ncccc3c(N[C@@H]3C[C@H]4CCC[C@@H](C3)N4CC(=O)N[C@H]3CCOC3=O)n2)n[nH]1` [Example 1-42]: the “THP-1 IL4 pIC50” value is listed as “C (C represents a pEC50 value <6.7 (EC50>200 nM))”.

As for `Cc1cc(Nc2cc3ncccc3c(N[C@@H]3C[C@H]4CCC[C@@H](C3)N4S(=O)(=O)CC(C)C)n2)n[nH]1` [Example 4-17], the “THP-1 IL4 pIC50” value was “A (A represents a pEC50 value ≥7.5 (EC50≤32 nM))”.

`Cc1cc(Nc2cc3ncccc3c(N[C@@H]3C[C@H]4CC[C@@H](C3)N4CC(C)C)n2)n[nH]1` [Example 1-13]: the “THP-1 IL4 pIC50” value is “A (A represents a pEC50 value ≥7.5 (EC50≤32 nM))”.

On to `Cc1cc(Nc2cc3ncccc3c(N[C@@H]3C[C@H]4CC[C@@H](C3)N4C(=O)OCC(C)C)n2)n[nH]1` [Example 3-3], for which the “THP-1 IL4 pIC50” value is given as “A (A represents a pEC50 value ≥7.5 (EC50≤32 nM))”.

As for `COc1ccnc2cc(Nc3cc(C)[nH]n3)nc(N[C@@H]3C[C@H]4CC[C@@H](C3)N4CCC#N)c12` [Example 7-6], the “THP-1 IL4 pIC50” value is recorded as “A (A represents a pEC50 value ≥7.5 (EC50≤32 nM))”.

`Cc1cc(Nc2cc3ncccc3c(N[C@@H]3C[C@H]4CCC[C@@H](C3)N4CC(=O)N[C@@H]3CCOC3=O)n2)n[nH]1` [Example 1-41]: the “THP-1 IL4 pIC50” value is reported as “C (C represents a pEC50 value <6.7 (EC50>200 nM))”.

The record behind these values is patent publication US10947254B2, “Methods for treating ulcerative colitis using 3-((1R,3s,5S)-3-((7-((5-methyl-1H-pyrazol-3-yl)amino)-1,6-naphthyridin-5-yl)amino)-8-azabicyclo[3.2.1]octan-8-yl)propanenitrile” (priority 2015, dated 2021).
